This is an account of results in patent US5608095A, “Alkyl-4-silyl-phenols and esters thereof as antiatherosclerotic agents” (Hoechst Marion Roussel, Inc., priority 1996, dated 1997).

Where two headings read alike, the source gives them in different places.

Data set [1] can be described thus: HPLC quantitation of compound and metabolite concentration in rat serum and liver. The data set is classed as in vivo, male Sprague-Dawley rats. The conditions noted are these: diet 0.3%, 4 days; for Liver Parent = parent compound concentration: rat liver; for Serum Parent = parent compound concentration: rat serum. From the text:
(§1) A typical experiment consisted of 4-6 groups of rats (N=5 per group) with 1 group being a control which received no MDL compound and the other groups being treated with 0.3% MDL compound. Some of the compounds were either repeated at 0.3% or evaluated again at the lower dose of 0.1%. Male Sprague-Dawley rats, 50-100 g, (Harlan Laboratories, Indianapolis, Ind.) were housed in groups of 5, fed ad libitum water and Purina Rodent chow (#5002) with or without MDL compound as a dietary admixture for 4 days. Dietary admixtures (0.3%) were made by mixing 1.2 grams of an MDL compound with 400 grams of Purina rodent chow (#5002). The MDL compound was mixed with approximately 50 grams of food using a mortar and pestle. This was added to the remainder of the food and mixed for 3 hours on a rotary mixer. In the morning of day 5, non-fasted rats were anesthetized with carbon dioxide, and blood was collected by cardiac puncture. Rats were sacrificed by cervical dislocation. Body weights and liver weights were recorded in grams. Food consumption was recorded as grams.cndot.day^-1.cndot.rat^-1. Deaths were recorded as mortality. Aliquots of fresh serum were used for clinical chemistries, thiobarbituric acid reactive substances (TBARS) and conjugated diene measurements. Aliquots of serum (~0.5mL) and whole livers were frozen at -20° C. for compound and metabolite concentration determination at a later time.
Serum and liver concentrations of parent compound and the metabolites, bisphenol and diphenoquinone, were determined by reverse phase HPLC using a Waters 990 Powerline system. Livers (1 gram samples) were homogenized with 5.0 mL PBS, pH 7.4, using a Polytron tissue homogenizer at setting 5 for 20-30 seconds. Serum or liver homogenates were extracted as follows: 100μL of either serum or homogenate were added to 2.0 mL diethyl ether:ethanol (3:1) while vortexing the tube. The sample tubes were capped and centrifuged for 10 min at 5° C. at 3500 rpm in a Beckman GPKR centrifuge with a GH 3.7 rotor. The supernatants were transferred to clean tubes and dried under N2. Samples were reconstituted with 200 μL of acetonitrile:hexane:0.1M ammonium acetate (90:6.5:3.5, by vol.). Then, 100 μL were injected onto a Waters Deltapak C18-300 Å column, and eluted with an 83% acetonitrile:17% water mobile phase at a flow rate of 1.5 mL/min. Absorbances at the wavelengths of 240, 254, and 420 nm were recorded. Compound concentrations were calculated from known quantities of authentic parent compounds after correction for recovery; the range of recovery from spiked samples was 40 to 100%. The lowest detectable limit for this class of compounds was ~0.5 μg/mL. […]. Concentrations were calculated as μg/mL of serum and μg/g of liver.

Data set [2] in a line: Animal parameters (food, body weight, liver weight, mortality) in rats. The data set is classed as in vivo, male Sprague-Dawley rats. Particulars: diet 0.3%, 4 days; for mortality at 96 h: in vivo, po, read-out: mortality (deaths per group); for mortality at 96 h / body wt., percent of control / lw/bw (liver weight/body weight), percent of control: rat.
Description: as §1

The nature of data set [3]: Clinical chemistries in serum of rats. The data set is classed as in vivo, male Sprague-Dawley rats. Particulars: for response vs control in vivo at 0.3 %: Rattus norvegicus, po, 96 h; for ALP (alkaline phosphatase), percent of control / ALT (alanine aminotransferase), percent of control / AST (aspartate aminotransferase), percent of control / GLUC (glucose), percent of control: rat serum, diet 0.3%, 4 days.
Description: as §1
Blood was allowed to clot at room temperature for 30 minutes. Serum was obtained after centrifugation for 10 min at 4° C. at 3000 rpm in a Beckman J-6M/E centrifuge with a JS-4.2 rotor. Fresh serum was analyzed by a COBAS MIRA S autoanalyzer (Roche Diagnostics) using Roche diagnostic reagents for the following clinical chemistry measurements: alkaline phosphatase (ALP, kit #44553), alanine transaminase (ALT, kit #42375), aspartate aminotransferase (AST, kit #42381), total cholesterol (CHOL, kit #44334), triglyceride (TG, kit #44120), and glucose (GLU, kit #44558). ALP, ALT, and AST were calculated as units/L. Cholesterol, triglycerides, and glucose were calculated as mg/dL.

A further data set deals with oxidation of lipids. The data set can be described thus: Conjugated diene determination, rat serum. The data set is classed as in vivo, male Sprague-Dawley rats. The conditions noted are these: pooled rat serum, diet 0.3%, 4 days, mean of 2 determinations.
Description: as §1
Conjugated diene lag phase is another indicator of the oxidation of lipids. Lipids exposed to Cu^++ form conjugated dienes that absorb ultraviolet light in the range of 230 to 235 nm. The lag phase of diene formation gives an indication of the amount of oxidation of the lipids. A lag phase longer than control samples indicate inhibition of the oxidation. Conjugated diene lay phase was determined using a Varian DMS200 spectrophotometer (fitted with a constant temperature, 5 cuvette sample changer) at 30° C. Twenty (20) μL of pooled serum were added to cuvettes containing 3.0 mL phosphate buffered saline, pH 7.5, and mixed. The absorbances of all cuvettes were measured, and the instrument baseline was set to zero using the lowest absorbing sample. Next, 100 μL of 1 mmol CuSO4 were added and immediately mixed. The absorbance of each cuvette was recorded at 2 min intervals for a period of 840 min. The data were captured and transferred to a Microsoft EXCEL® spreadsheet where the curves were smoothed and differentials obtained. Lag times were determined mathematically as minutes. Serum samples were pooled (N=5); data presented are the mean values of 2 determinations. Serum samples from treated rats were compared to serum samples from control rats that received no MDL compound.

In data set [4] the test system is oxidation of serum lipids. The data set can be described thus: TBARS assay, rat serum. The data set is classed as in vivo, male Sprague-Dawley rats. The conditions noted are these: Rattus norvegicus, po, 96 h, read-out: TBARS, percent of control.
Description: as §1
In this assay the oxidation of serum lipids is initiated with CuSO4, resulting in the formation of aldehydes, such as malondialdehyde (MDA). Upon incubation with thiobarbituric acid, the absorbance of the aldehydes can be detected at 530-540 nm. As stated in the previous example, TBARS values which are lower than control serum values indicate the relative ability of a test compound to inhibit the oxidation of lipids in a sample. TBARS were measured as follows: 100 μL of serum were mixed with 400 μL of a 5 mmol CuSO4 solution and incubated at 37° C. for 3 hr. The reactions were stopped by addition of 1.0 mL of 20% trichloroacetic acid. Then 1.0 mL of 0.67% thiobarbituric acid in 0.05N sodium hydroxide was added, mixed, and the samples incubated for 30 min at 90° C. Samples were centrifuged briefly to pellet undissolved material, and the supernatants were transferred to a 96-well microtiter plate. Absorbances were measured at 540 nm using a Biotek model EL311 microplate reader. The nmoles of MDA produced were calculated from a standard curve of 0 to 10 nmoles of MDA prepared from malonaldehyde bis(dimethylacetal). Serum samples from treated rats were compared to serum samples from control rats that received no MDL compound.

The test system of the next data set is VCAM-1. The conditions noted are these: vascular endothelial cells; cited from earlier work.
The mark [5] stands for this setting: read-out: CHOL (total cholesterol), percent of control.
Setting [6] is: read-out: TRIG (triglycerides), percent of control.

As to `CC(=O)Oc1c(C)cc(OC[Si](C)(C)c2ccccc2)c(C)c1C` [MDL 103,157, 2,3,6-Trimethyl-4-[(dimethylphenylsilyl)methyloxy]phenol acetic acid ester], in data set [1], the “Liver Parent = parent compound concentration” value is 0 µg/g and the “Serum Parent = parent compound concentration” value stood at 0 µg/mL. Besides, in data set [2], the “food (grams eaten per day per rat), percent of control” value came out at 96%; the mortality at 96 h is 0%; the “body wt., percent of control” value is listed as 96%; the “lw/bw (liver weight/body weight), percent of control” value turned out to be 120%. In data set [3] (setting [5]), the response vs control in vivo at 0.3 % amounted to 112%. For the same compound, the response vs control in vivo at 0.3 % in data set [3] (setting [6]) was found to be 82%. Further, in data set [3], the “ALP (alkaline phosphatase), percent of control” value (“ALP … percent of control” below) is on record as 144%; the “ALT (alanine aminotransferase), percent of control” value (“ALT … percent of control” below) is 133%; the “AST (aspartate aminotransferase), percent of control” value (“AST … percent of control” below) turned out to be 92%; the “GLUC (glucose), percent of control” value was 100%. In addition, in the data set with oxidation of lipids, the “CONJ. DIENE (conjugated diene lag phase)” value came to 50 min. Moreover, in data set [4], the response vs control in vivo at 0.3 % was 94%.
Turning to `CC(C)(C)c1cc(OC[Si](C)(C)c2ccccc2)ccc1OC(=O)CCC(=O)O` [MDL 104,399, 2-t-Butyl-4-[(dimethylphenylsilyl)methyloxy]phenol succinic acid ester], in data set [1], the “Liver Parent = parent compound concentration” value is 0 µg/g and the “Serum Parent = parent compound concentration” value turned out to be 0 µg/mL. Further, in data set [2], the “food (grams eaten per day per rat), percent of control” value worked out at 90%; the mortality at 96 h stood at 0%; the “body wt., percent of control” value was determined as 101%; the “lw/bw (liver weight/body weight), percent of control” value is 118%. In addition, the response vs control in vivo at 0.3 % in data set [3] (setting [5]) was 130%. Further, in data set [3] (setting [6]), the response vs control in vivo at 0.3 % turned out to be 168%. For the same compound, in data set [3], the “ALP … percent of control” value is listed as 91%; the “ALT … percent of control” value worked out at 107%; the “AST … percent of control” value worked out at 102%; the “GLUC (glucose), percent of control” value is 88%. Also, the “CONJ. DIENE (conjugated diene lag phase)” value in the data set with oxidation of lipids is 395 min. The response vs control in vivo at 0.3 % in data set [4] came out at 41%.
In the case of `CC(=O)Oc1cc(C(C)(C)C)c(OC[Si](C)(C)c2ccccc2)cc1C(C)(C)C` [MDL 106,290, 2,5-Di-t-butyl-4-[(dimethylphenylsilyl)methyloxy]phenol acetic acid ester], in data set [2], the “food (grams eaten per day per rat), percent of control” value is 108%; the mortality at 96 h stood at 0%; the “body wt., percent of control” value came out at 95%; the “lw/bw (liver weight/body weight), percent of control” value is given as 104%. In addition, in data set [3] (setting [5]), the response vs control in vivo at 0.3 % stood at 153%. In addition, in data set [3] (setting [6]), the response vs control in vivo at 0.3 % turned out to be 75%. For the same compound, in data set [3], the “ALP … percent of control” value is 118%; the “ALT … percent of control” value is listed as 89%; the “AST … percent of control” value is listed as 84%; the “GLUC (glucose), percent of control” value stood at 109%. Also, the “CONJ. DIENE (conjugated diene lag phase)” value with oxidation of lipids was found to be 372 min. Besides, the response vs control in vivo at 0.3 % in data set [4] is 17%.
In the case of `CC(=O)N[C@@H](CS)C(=O)O` [N-acetylcysteine], in the data set with VCAM-1, the “inhibition of cytokine-induced expression of VCAM-1” value is “inhibit cytokine-induced expression of VCAM-1”.
As to `S=C(S)N1CCCC1` [pyrollidine dithiocarbamate], the “inhibition of cytokine-induced expression of VCAM-1” value in the data set on VCAM-1 is reported as “inhibit cytokine-induced expression of VCAM-1”.

As a reminder, the mortality is the share of the test organisms that died.
